Assay results reported in US12390461B2, “Modulators of RAR-related orphan receptors (RORs)” (11949098 CANADA INC., priority 2018, dated 2025).

The compounds below were run on Th17 polarization of human peripheral blood mononuclear cells (assay: Th17 polarization assay (IL-17A positive cells by flow cytometry)). Conditions: PBMC, 10 nM compound, 48 hours, triplicates, average of 50% over the listed compounds, p<0.05, read-out: inhibition of the polarization of Th17 cells (percentage of IL17A positive cells relative to total CD4 T cells).
Format: cell-based
Description: This assay measures the phenotypic effects of the compounds on the production of interleukin 17A (IL-17A). IL-17A genes are regulated by ROR response elements (ROREs). Compounds that bind to ROR (LBD) can inhibit the binding of RORγ to ROREs DNA site. Compounds can also reduce the effect of the binding which is enhanced by the binding of the co-activator protein.
Peripheral blood mononuclear cells were isolated by density gradient centrifugation. The principle of this method is that components of the blood have different densities and can be separated according to their relative density. […] This medium is denser than lymphocytes, monocytes, and platelets and they remain about it, but less dense than granulocytes and erythrocytes, which will drop below it. […] Four layers were form, each containing different cell types—the uppermost layer contain containing plasma was removed by pipetting. PBMCs layer and is a characteristically white and cloudy “blanket” was gently removed using a 10 ml pipette and added to warm medium or PBS (1:3) to wash off any remaining platelets and centrifuged at 400×g for 10 minutes. The pelleted cells were counted, and the percentage viability estimated using Trypan blue staining. Cells were frozen for long-term storage.
To preserve PBMCs at ultra-low temperatures in liquid nitrogen, dimethyl sulfoxide (DMSO) was used as a cryoprotectant to reduce the formation of ice crystals and prevent cell damage. To freeze, freshly isolated PBMCs are resuspended to 5×10^6 cells/mL in freezing medium containing 10% DMSO and 90% fetal bovine serum (FBS) and were placed inside a freezing container at −80° C. overnight to allow gradual and even cooling. The following day, samples were moved to a liquid nitrogen tank for long-term storage.
500 ml bottle of RPMI at 4° C. was opened in a biological safety cabinet. Half of the media was transferred to a 500 ml 0.22 um bottle top filter (with the vacuum turned off). 59 ml filtered heat inactivated fetal bovine serum (FBS), 6 ml penicillin-streptomycin solution (100×), 6.0 ml of L-glutamine (100×), 6.0 ml MEM non-essential amino acids 100×, 6.0 ml of sodium pyruvate were added and the volume was brought up to 500 ml by adding the RPMI. Culture media were stored in 4° C. and used for duration of two weeks.
PBMCs were thawed carefully to avoid loss of cell viability and functionality. Samples are removed from liquid nitrogen and placed on ice, after which they were thawed in a 37° C. water bath. Once there is a small crystal of ice left in the bottom on the tubes, 500 μL warm complete RPMI medium supplemented with 10% FBS, 1% penicillin-streptomycin, and L-glutamine was added dropwise. The cells were then transferred to Falcon tubes containing 10 mL warm medium and centrifuged for 10 minutes at 400×g to wash off the toxic DMSO. This wash step was repeated, and the cell pellet was then resuspended in medium to count as before. Once thawed, PBMCs was rested overnight to remove any apoptotic cell this increases viability and improves functionality and involves incubating the freshly thawed PBMCs in supplemented medium for approximately 18 hours. After this resting period, cells were washed to be used in culture.
Culture medium was changed every other day for the whole duration. Compounds were added to the polarized cells at day 12 for 48 hours. At measurement day, CD3/CD28 beads were removed and cells were treated with cell stimulation cocktail for 5 hours at the end of 48 hours incubation. Plates were centrifuged at 400×g for 10 minutes. Supernatant was collected for further testing and cells were resuspended in 1×PBS and washed twice at 400×g before staining for surface and intracellular markers.
The dye was used in 1:1000 concentration in 1×PBS. The cells were incubated in dye solution for 30 minutes in 4° C.
With `CSc1ncc(Cl)c(C(=O)Nc2sc3c(c2C(=O)NCc2ccccc2)CCCC3)n1` [Compound 2, N-(3-(benzylcarbamoyl)-4,5,6,7-tetrahydrobenzo[b]thiophen-2-yl)-5-chloro-2-(methylthio)pyrimidine-4-carboxamide] the inhibition at 0.01 µM was 30 to 70%.
For `CSc1ncc(Cl)c(C(=O)Nc2sc3c(c2C(=O)NC2CCS(=O)(=O)C2)CCC(C)C3)n1` (stereo not drawn) [Compound 3, 5-chloro-N-(3-{[(1,1-dioxidotetrahydro-3-thienyl)amino]-carbonyl}-6-methyl-4,5,6,7-tetrahydro-1-benzothien-2-yl)-2-(methylthio)-4-pyrimidine-carboxamide], the inhibition at 0.01 µM was 30 to 70%.
`CCC1CCc2c(sc(NC(=O)c3ccnn3C)c2C(=O)Nc2ccccc2C)C1` (stereo not drawn) [Compound 4, N-(6-ethyl-3-{[(2-methylphenyl)amino]carbonyl}-4,5,6,7-tetrahydro-1-benzothien-2-yl)-1-methyl-1H-pyrazole-5-carboxamide] gave an inhibition at 0.01 µM of 30 to 70%.
With `CN1CCN(C(=O)c2c(NC(=O)c3ccccc3F)sc3c2CCC(C(C)(C)C)C3)CC1` (stereo not drawn) [Compound 5, N-{6-tert-butyl-3-[(4-methyl-1-piperazinyl)carbonyl]-4,5,6,7-tetrahydro-1-benzothien-2-yl}-2-fluorobenzamide] the inhibition at 0.01 µM was 30 to 70%.
`CC1CCc2c(sc(NC(=O)c3ccccc3F)c2C(=O)N2CCN(C)CC2)C1` (stereo not drawn) [Compound 6, 2-fluoro-N-{6-methyl-3-[(4-methyl-1-piperazinyl)carbonyl]-4,5,6,7-tetrahydro-1-benzothien-2-yl}benzamide] showed an inhibition at 0.01 µM of 30 to 70%.
`O=C(NCc1ccccc1)c1c(NC(=O)C(F)(F)F)sc2c1CCCC2` [Compound 7, N-benzyl-2-[(trifluoroacetyl)amino]-4,5,6,7-tetrahydro-1-benzothiophene-3-carboxamide] showed an inhibition at 0.01 µM of 30 to 70%.
Compound `Cc1ccnc(SCC(=O)Nc2sc3c(c2C(=O)NCc2ccccc2)CCCC3)n1` [Compound 8, N-benzyl-2-({[(4-methyl-2-pyrimidinyl)thio]acetyl}amino)-4,5,6,7-tetrahydro-1-benzothiophene-3-carboxamide] has an inhibition at 0.01 µM of 30 to 70%.
`O=C(CN1CCCCC1)Nc1sc2c(c1C(=O)NCc1ccccc1)CCCC2` [Compound 9, N-benzyl-2-[(1-piperidinylacetyl)amino]-4,5,6,7-tetrahydro-1-benzothiophene-3-carboxamide] showed an inhibition at 0.01 µM of 30 to 70%.
For `CN1CCN(CC(=O)Nc2sc3c(c2C(=O)NCc2ccccc2)CCCC3)CC1` [Compound 10, N-benzyl-2-{[(4-methyl-1-piperazinyl)acetyl]amino}-4,5,6,7-tetrahydro-1-benzothiophene-3-carboxamide], the inhibition at 0.01 µM was 30 to 70%.
Work on `CC1CCN(CC(=O)Nc2sc3c(c2C(=O)NCc2ccccc2)CCCC3)CC1` [Compound 11, N-benzyl-2-{[(4-methyl-1-piperidinyl)acetyl]amino}-4,5,6,7-tetrahydro-1-benzothiophene-3-carboxamide] yielded an inhibition at 0.01 µM of 30 to 70%.
With `CC1CCCN1C(=O)c1c(NC(=O)c2cccnc2)sc2c1CCCC2` (stereo not drawn) [Compound 12, N-(3-(2-methylpyrrolidine-1-carbonyl)-4,5,6,7-tetrahydro-benzo[b]thiophen-2-yl)nicotinamide] the inhibition at 0.01 µM was 30 to 70%.
With `C[C@@H]1CCN(C(=O)c2c(NC(=O)c3cccnc3)sc3c2CCCC3)[C@H](C)C1` [Compound 13, N-(3-((2R,4R)-2,4-dimethylpiperidine-1-carbonyl)-4,5,6,7-tetrahydrobenzo[b]thiophen-2-yl)nicotinamide] the inhibition at 0.01 µM was 30 to 70%.
`CCC1CCN(C(=O)c2c(NC(=O)c3cccnc3)sc3c2CCCC3)C1` (stereo not drawn) [Compound 15, N-(3-(3-ethylpyrrolidine-1-carbonyl)-4,5,6,7-tetrahydro-benzo[b]thiophen-2-yl)nicotinamide] was tested, and the inhibition at 0.01 µM was 30 to 70%.
In the case of `Cn1ccnc1SCC(=O)Nc1sc2c(c1C(=O)NCc1ccccc1)CCCC2` [Compound 16, N-benzyl-2-(2-((1-methyl-1H-imidazol-2-yl)thio)acetamido)-4,5,6,7-tetrahydrobenzo[b]thiophene-3-carboxamide], the inhibition at 0.01 µM is reported as 30 to 70%.
`Cn1cnc(CNC(=O)c2c(NC(=O)c3cccnc3)sc3c2CCCC3)n1` [Compound 19, N-(3-(((1-methyl-1H-1,2,4-triazol-3-yl)methyl)carbamoyl)-4,5,6,7-tetrahydrobenzo[b]thiophen-2-yl)nicotinamide] was tested, and the inhibition at 0.01 µM was 30 to 70%.
Work on `C[C@@H](C#N)NC(=O)c1c(NC(=O)c2cccnc2)sc2c1CCCC2` [Compound 20, (S)—N-(3-((1-cyanoethyl)carbamoyl)-4,5,6,7-tetrahydro-benzo[b]thiophen-2-yl)nicotinamide] yielded an inhibition at 0.01 µM of 30 to 70%.
Compound `O=C(Nc1sc2c(c1C(=O)c1ccccc1)CCCC2)c1cnccn1` [Compound 22, N-(3-benzoyl-4,5,6,7-tetrahydrobenzo[b]thiophen-2-yl)pyrazine-2-carboxamide] has an inhibition at 0.01 µM of 30 to 70%.
`Cc1cnc(S(C)(=O)=O)nc1C(=O)Nc1sc2c(c1C(=O)c1ccccc1)CCCC2` [Compound 23, N-(3-benzoyl-4,5,6,7-tetrahydrobenzo[b]thiophen-2-yl)-5-methyl-2-(methylsulfonyl)pyrimidine-4-carboxamide] was tested, and the inhibition at 0.01 µM was 30 to 70%.
